Read-outs that look alike come from different tables or passages of the source.
Key:
[1] = test system: blood pressure of the narcotized rat; test: Lowering of the blood pressure, narcotized rat; type: in vivo; set-up: unit not given here; settings: 30% lowering
[2] = test system: blood pressure increasing effect of noradrenaline; test: Inhibition of the pressor effect of noradrenaline, despinalized rat; type: in vivo; settings: iv, 0.001 mg/kg i.v. noradrenaline, read-out: 50% inhibition of the press. effect after i.v. administration of noradrenaline with
[3] = test system: blood pressure increasing effect of adrenaline; test: Inhibition of the pressor effect of adrenaline, despinalized rat; type: in vivo; settings: iv, 0.001 mg/kg i.v. adrenaline, read-out: 50% inhibition of the press. effect after i.v. administration of adrenaline with
[4] = in vivo; settings: mouse
[5] = test system: histamine spasm of the isolated small intestine of the guinea pig; test: Antihistamine effect, histamine spasm of isolated small intestine
[6] = test system: carotid sinus relaxation reflex of the narcotized cat; test: Inhibition of the carotid sinus reflex, narcotized cat; type: in vivo; settings: Felis catus, iv; for ED30: 30% inhibition; for ED50: 50% inhibition
[7] = test system: mouse; test: Analgesic effect, thermal stimulation of the tail of the mouse; type: in vivo; settings: oral, 25% retardation, read-out: Retardation of the defense reaction upon thermal stimulation of the tail of the mouse by 25%
Source text: The analgesic effect was thereby determined as the delay in the reaction upon thermal stimulation of the tail of the mouse.

[8] = test system: blood pressure of the narcotized cat; test: Lowering of the blood pressure, narcotized cat; type: in vivo; settings: Felis catus, iv; for ED30: 30% lowering; for ED50: 50% lowering
[9] = test system: mouse; test: SD50, sedation symptoms, mouse; type: in vivo
Source text: b = Dose, at which at an average 50% of the mice show the following symptoms: inhibition of the spontaneous motility, sadation, muscle relaxation, loss of gripping and holding ability on a horizontal wire net.

[10] = test system: mouse; test: Inhibition of the motility in the tread wheel, mouse; type: in vivo; settings: for inhibition in vivo at 25 mg/kg: ip, 3 h, read-out: % Inhibition of the motility in the tread wheel by 25 mg/kg i.p.
[11] = test system: mouse; test: Prolongation of sleep induced by hexobarbital, mouse; type: in vivo; settings: ip, read-out: % prolongation of sleep induced by hexobarbital by 15 mg/kg i.p.
Experimental: d = Percent prolongation of the duration of sleep of mice, which were administered 75 mg/kg hexobarbital, compared with the sleep duration of controls.

[12] = test system: mouse; test: PD50, rotating rod, mouse; type: in vivo; settings: ip, read-out: PD50
Source text: The centrally inhibiting effect of the piperazinyl uracils of the invention in the mouse are apparent from Table IV. […] The selective action of the compounds of the invention on the central blood pressure mechanism can be used advantageously in human therapy in the treatment of hypertonic diseases.
a = Dose, at which an average of 50% of the mice fall from a rotating rod.

[13] = mouse, oral, dose at which 50% show inhibition of spontaneous motility, sedation, muscle relaxation, loss of gripping, read-out: SD50 (the source's name)
[14] = mouse, 25 mg/kg i.p., 5 mg/kg d-amphetamine-sulfate, 180 minutes
[15] = mouse, 15 mg/kg i.p., 75 mg/kg hexobarbital, vs controls
[16] = mouse, i.p., dose at which an average of 50% of the mice fall from a rotating rod

Structure (SMILES) | lowering of the blood pressure by 30% by [1] | ED50 [2] | ED50 [3] | LD50 [4] | 50% inhibition of the histamine spasm of the isolated small intestine of the guinea pig [5] | ED25 [7] | ED30 [8] | ED50 [8] | ED50 [9, 13] | inhibition in vivo at 25 mg/kg [10, 14] | change in vivo at 15 mg/kg [11, 15] | ED50 [12, 16] | also measured
CCCCc1c(NCCCN2CCN(c3ccccc3OC)CC2)n(C)c(=O)n(C)c1=O [Example 15, 1,3-Dimethyl-4-(γ-[4-(o-methoxyphenyl)-piperazinyl-(1)]-propylamino)-5-n-butyl-uracil] | 0.36 | 2.8 mg/kg | 0.028 mg/kg | 130 mg/kg |  |  |  |  |  |  |  |  | 
Cn1c(NCCCN2CCN(c3ccc(Cl)cc3)CC2)cc(=O)n(C)c1=O [Example 13, 1,3-Dimethyl-4-(γ-[4-(p-chlorophenyl)-piperazinyl-(1)]-propylamino)-uracil] | > 3.4 |  | > 2.5 mg/kg | 70 mg/kg | 1e-08 g/mL |  |  |  |  |  |  |  | 
COc1ccccc1N1CCN(CCCNc2c([N+](=O)[O-])c(=O)n(C)c(=O)n2C)CC1 [Example 16, 1,3-dimethyl-4-(γ-[4-(o-methoxyphenyl)-piperazinyl-(1)]-propylamino)-5-nitro-uracil] | 1.6 |  | 0.17 mg/kg | 600 mg/kg |  | 10 mg/kg | 0.21 mg/kg | 1 mg/kg |  |  |  |  | ED30 [6]: 0.6 mg/kg; ED50 [6]: 2 mg/kg
CCOc1ccccc1N1CCN(CCCNc2cc(=O)n(C)c(=O)n2C)CC1 [Example 5, 1,3-Dimethyl-4-(γ[4-(o-ethoxyphenyl)-piperazinyl-(1)]-propylamino)-uracil] | 0.36 |  | 0.24 mg/kg | 250 mg/kg |  | 9 mg/kg |  |  | 98 mg/kg | 46% | 126% | 26 mg/kg | 
Cc1ccc(N2CCN(CCCNc3cc(=O)n(C)c(=O)n3C)CC2)cc1 [Example 1, 1,3-Dimethyl-4-(γ-[4-(p-tolyl)-piperazinyl-(1) ]-propylamino)-uracil] | 2.9 |  | 1.45 mg/kg | 200 mg/kg |  | 5 mg/kg |  |  | 40 mg/kg | 36% | 110% | 28 mg/kg | 
CNC1=Nc2ccc(Cl)cc2C(c2ccccc2)=[N+]([O-])C1 [Chlordiazepoxyde, reference compound] |  |  |  |  |  |  |  |  |  |  |  |  | ED50 ([9]; Mus musculus, po, read-out: SD50): 8 mg/kg; inhibition in vivo at 25 mg/kg ([10]; Mus musculus): 30%; change in vivo at 15 mg/kg ([11]; Mus musculus): 324%; ED50 ([12]; Mus musculus): 38 mg/kg
Cc1ccccc1N1CCN(CCCNc2c(N=O)c(=O)n(C)c(=O)n2C)CC1 [Example 61, 1,3-Dimethyl-4-([4-(o-tolyl)-piperazinyl-(1)]-propyl-amino)-5-nitroso-uraci] | 0.5 | 3.7 mg/kg | 0.39 mg/kg | 600 mg/kg |  |  |  |  |  |  |  |  | 
CN1CCC(OC(c2ccccc2)c2ccccc2)CC1 [Piprinhydrinate, reference compound] |  |  |  |  | 1.5e-08 g/mL |  |  |  |  |  |  |  | 
COc1ccccc1N1CCN(CCCOc2cc(=O)n(C)c(=O)n2C)CC1 [Example 9, 1,3-Dimethyl-4-(γ-[4-(o-methoxyphenyl)-piperazinyl-(1)]-propyloxy)-uracil] | > 3.4 |  | 0.15 mg/kg | 400 mg/kg |  | 10 mg/kg | 0.03 mg/kg | 0.14 mg/kg | 30 mg/kg | 79% | 140% | 12 mg/kg | ED30 [6]: 0.17 mg/kg; ED50 [6]: 0.26 mg/kg
Cc1ccccc1N1CCN(CCCNc2cc(=O)n(C)c(=O)n2C)CC1 [Example 12, 1,3-Dimethyl-4-(γ-[4-(o-tolyl)-piperazinyl(1)]-propylamino)-uracil] | 1.0 | 2.5 mg/kg | 0.45 mg/kg | 70 mg/kg | 3e-08 g/mL | 6.5 mg/kg | 0.41 mg/kg | 2.4 mg/kg | 87 mg/kg |  | 49% | 26 mg/kg | % Inhibition of the motility in the tread wheel by 12 mg/kg i.p. ([10]; mouse, 12 mg/kg i.p., 5 mg/kg d-amphetamine-sulfate, 180 minutes): 42%
